From US20130251730A1, “Compounds and Mixtures Influencing Inflammatory States” (SYMRISE AG, priority 2012, published 2013)
Marks after values point to notes of the source that are not given here.

Experiments:
[1] = system: IL-8 release by human gingival fibroblastic cells (HGF-1); assay: Release of IL-8 by HGF-1 cells after stimulation with 10 μg/ml PG-LPS (magnetic bead assay); format: cell-based
Description: Human gingival fibroblastic cells (HGF-1) were sowed out in 24-well plates with 15,000 cells per well and cultivated for 3 to 5 days. DNEM containing 10% FBS, 1% penicillin/streptomycin and 4% glutamine was used as the medium. For determination of the anti-inflammatory action the cells were incubated with 10 μg/ml PG-LPS for 6 and 9 hrs. Subsequently, the release of IL-6 and IL-8 per magnetic bead was determined (Procarta, Affimetrix) using a MAGPIX equipment (Merck-Millipore) and analysed using the Milliplex software (Merck Millipore). In each case 4 samples with two technical replicates were measured. In addition to this control the cells were co-incubated with • (a) 10 μg/ml PG-LPS and also with • (b) solutions of the Herba Santa extract according to Example 1 (HS, containing 21.7% HED, 0.1 μM, 1 μM and 10 μM calculated on HED); • (c) the flavonoid fraction (“FF”) obtained as a by-product according to Example 4 (containg 41.5% HED, 0,1 μM, 1 μM and 10 μM calculated on HED); • (d) the extract rich in erionic acid (“ES”) according to Example 4 or isolated erionic acid B (according to Example 2) and • (e) erionic acid C according to Example 3 (each 0,1 μM, 1 μM and 10 μM).
(§1) After incubation the cell culture medium was transferred into an Eppendorf reaction vessel and at 4° C. for 10 min subjected to centrifugation (1000×g) in order to separate the cell depris. The upper layer was stored at −80° C. until the analysis started. The results of the release of IL-6 and […]

[2] = system: IL-6 release by human gingival fibroblastic cells (HGF-1); assay: Release of IL-6 by HGF-1 cells after stimulation with 10 μg/ml PG-LPS (magnetic bead assay); format: cell-based
Description: Human gingival fibroblastic cells (HGF-1) were sowed out in 24-well plates with 15,000 cells per well and cultivated for 3 to 5 days. DNEM containing 10% FBS, 1% penicillin/streptomycin and 4% glutamine was used as the medium. For determination of the anti-inflammatory action the cells were incubated with 10 μg/ml PG-LPS for 6 and 9 hrs. Subsequently, the release of IL-6 and IL-8 per magnetic bead was determined (Procarta, Affimetrix) using a MAGPIX equipment (Merck-Millipore) and analysed using the Milliplex software (Merck Millipore). In each case 4 samples with two technical replicates were measured. In addition to this control the cells were co-incubated with • (a) 10 μg/ml PG-LPS and also with • (b) solutions of the Herba Santa extract according to Example 1 (HS, containing 21.7% HED, […]); • (c) the flavonoid fraction (“FF”) obtained as a by-product according to Example 4 (containg 41.5% HED, […]); • (d) the extract rich in erionic acid (“ES”) according to Example 4 or isolated erionic acid B (according to Example 2) and • (e) erionic acid C according to Example 3 (each 0,1 μM, 1 μM and 10 μM).
as §1

[3] = 10 μg/ml PG-LPS + 1 μg/ml test substance, 6 h
[4] = 10 μg/ml PG-LPS + 1 μg/ml test substance, 9 h
[5] = 10 μg/ml PG-LPS + 10 μg/ml test substance, 6 h
[6] = 10 μg/ml PG-LPS + 10 μg/ml test substance, 9 h
[7] = 10 μg/ml PG-LPS + 100 μg/ml test substance, 6 h
[8] = 10 μg/ml PG-LPS + 100 μg/ml test substance, 9 h
[9] = co-incubation with 10 μg/ml PG-LPS, 6 and 9 hrs, 0.1, 1 and 10 μM

## CC(CCc1cc(C(=O)O)cc2c1OC(C)(C)C(O)C2)C(=O)/C=C/C(C)(C)O (centres unmarked) [Erionic acid B, 3-hydroxy-8-((E)-7-hydroxy-3,7-dimethyl-4-oxo-oct-5-enyl)-2,2-dimethyl-chroman-6-carboxylic acid]
[1]; [3]
  IL-8 T/C [%]: 79.91%
[1]; [4]
  IL-8 T/C [%]: 77.33%
[1]; [5]
  IL-8 T/C [%]: 134.54** %
[1]; [6]
  IL-8 T/C [%]: 71.35%
[1]; [7]
  IL-8 T/C [%]: 46.30** %
[1]; [8]
  IL-8 T/C [%]: 116.34%
[1]; [9]
  release of IL-8: significant reduction
[2]; [3]
  IL-6 T/C [%]: 61.93* %
[2]; [4]
  IL-6 T/C [%]: 77.51* %
[2]; [5]
  IL-6 T/C [%]: 102.30%
[2]; [6]
  IL-6 T/C [%]: 61.47*** %
[2]; [7]
  IL-6 T/C [%]: 41.30** %
[2]; [8]
  IL-6 T/C [%]: 102.74%
[2]; [9]
  release of IL-6: significant reduction
